Reference: patent US20260232661A1, “Compositions and Uses Thereof” (Purposeful IKE, priority 2020, published 2026)

Tests used:
Format in all cases: in vivo
Fmr1 KO mice [1] = assay: Open field test (hyperactivity)
Method: (§1) Fmr1 KO mice backcrossed to the FVB strain and WT littermates were used during experiments. TransnetXY Automated Genotyping (www.transnetyx.com/). TRANSNETYX, INC., 8110 Cordova Rd. Suite 119, Cordova, TN 38016, USA was used for genotyping. The animals were pretreated for 14 days. The active ingredients of Sumatriptan and Ergoloid were in a water carrier, whereas oxitriptan was in a methanol carrier.
(§2) The mice were housed in plastic cages (35×30×12 cm), 5 in each. The room temperature (21±2° C.), relative humidity (55±5%), a 12-h light-dark cycle (lights on 7 a.m.-7 p.m.) and air exchange (16 times per h) were automatically controlled. The animals had free access to commercial food pellets and water. Testing was conducted during the light phase. Ten mice per treatment group were used for the AGS experiments. Experiments were conducted in line with the requirements of the UK Animals (Scientific Procedures) Act, 1986.
(§3) All experiments were conducted with the experimenter blind to genotype and drug treatment. Separate investigators prepared and coded dosing solutions, allocated the mice to the study treatment groups, dosed the animals, and collected the Audiogenic Seizure data.
(§4) Behavior testing was conducted at 2 weeks. The behavioral tests were as follows: 1. Hyperactivity: Open field; 2. Stereotypy: Self-grooming; 3. Sociability: Three chamber partition test; 4. Memory and Learning: Novel Object Recognition; 5. Anxiety: hyponeophagia; and 6. Test of daily living: marble burying
For hyperactivity, the open field test (OFT) is a common measure of exploratory behavior and general activity in both mice and rats, where both the quality and quantity of the activity can be measured. Principally, the open field (OF) is an enclosure, generally square, rectangular, or circular in shape with surrounding walls that prevent escape. The OFT is also commonly used as a mechanism to assess the sedative, toxic, or stimulant effects of compounds (Gould 2009).
(§5) The treatment of the mice with OX (Oxitriptan), SU (Sumatriptan), ER (Ergoloid mesylates, also referred to as ergoloid herein) were according to the matrix shown below in Table 1.
(§6) The experimental procedures described above for Example 1 were used in the following tests, as well as the addition of two further behaviour tests as described below. An SSRI (selective serotonin re-uptake inhibitor) was co-dosed with the ergoloid mesylates and oxitriptan to assess the effect of the ergoloid mesylates and oxitriptan treatment on a subject already receiving SSRI treatment.
(§7) The treatment of the mice with OX (Oxitriptan), ER (Ergoloid mesylates) and FL (fluvoxamine) were according to the matrix shown below in Table 21. The triple combination involved dosing of 2 mg/kg ergoloid mesylates, 40 mg/kg oxitriptan and 40 mg/kg of fluvoxamine (the SSRI).

Fmr1 KO mice [2] = assay: Self-grooming (stereotypy); details: Dunnett's test, alpha 0.05; doses as E31
Method: as §1, §2, §3
Behavior testing was conducted at 2 weeks. The behavioral tests were as follows: 1. Hyperactivity: Open field; 2. Stereotypy: Self-grooming; 3. […]
For stereotypy, self-grooming was assessed. […]

Fmr1 KO mice [3] = assay: Three chamber partition test (sociability); set-up: Mean Diff., N_WT-V vs. treated KO (Sociability) / Mean 2, treated KO group (Sociability) / Mean Diff., F_KO-V vs. F_KO treated (Sociability) / Mean Diff., F_KO-V vs. N_KO treated (Sociability) / Mean 2, F_KO treated group (Sociability) / Mean 2, N KO treated group (Sociability) / Mean 2, N_KO treated group (Sociability) / Data table Sociability, F_KO-Sumatriptan / Data table Sociability, N_KO-Sumatriptan / Data table Sociability, F_KO-Oxitriptan: unit not given here
Method: as §1, §2, §3, §4
For sociability a three chamber partition test was utilized. The three-chamber paradigm test known as Crawley's sociability and preference for social novelty protocol has previously been successfully employed to study social affiliation and social memory in several inbred and mutant mouse lines. The main principle of the test was based on the free choice by a subject mouse to spend time in any of three box's compartments during two experimental sessions, including indirect contact with one or two mice with which it was unfamiliar (Kaidanovich-Beilin 2011).
(§8) The treatment of the mice with OX (Oxitriptan), SU (Sumatriptan), ER (Ergoloid mesylates, also referred to as ergoloid herein) were according to the matrix shown below in Table 1. […]

Fmr1 KO mice [4] = assay: Novel Object Recognition (memory and learning); set-up: Mean Diff., N_WT-V vs. treated KO (NOR) / Mean 2, treated KO group (NOR) / Mean Diff., F_KO-V vs. F_KO treated (NOR) / Mean Diff., F_KO-V vs. N_KO treated (NOR) / Mean 2, F_KO treated group (NOR) / Mean 2, N_KO treated group (NOR): unit not given here
Method: as §1, §2, §3, §4
For memory and learning, a novel object recognition (NOR) task was used to evaluate the rodents' ability to recognize a novel object in the environment. […] The task procedure consists of three phases: habituation, familiarization, and test phase (Antunes 2012).
as §8

Fmr1 KO mice [5] = assay: Hyponeophagia test (anxiety)
Method: as §1, §2, §3, §4
For anxiety a hyponeophagia test was conducted. Mice and rats cannot vomit, due to the tightness of the cardiac sphincter of the stomach, so to overcome the problem of potential food toxicity they have evolved a strategy of first ingesting only very small amounts of novel substances. The amounts ingested then gradually increase until the animal has determined whether the substance is safe and nutritious. So the old rat-catchers would first put a palatable substance such as oatmeal, which was to be the vehicle for the toxin, in the infested area (Deacon 2011).
as §5, §6, §7

Fmr1 KO mice [6] = assay: Test of daily living (nesting; marble burying)
Method: as §1, §2, §3, §4
For test of daily living, nesting was assessed as nest building is an innate behavior in rodents, even when raised in laboratory settings. Synthetic and/or natural materials (such as twine, tissue, cotton, paper, and hay) are provided as a gauge of their overall well-being and as an ancillary assessment to predict the possible decline in cognition. Typically, changes in nesting behaviors, such as failure to create a nest, indicate a change in health or welfare. In addition, nesting behavior is sensitive to many environmental and physiological challenges, as well as many genetic mutations underlying pathological disease states (Gaskill 2013).
as §5, §6, §7

[7] = KO mice, mg/kg: Sumatriptan 20, Oxitriptan 40, Ergoloid 4, Ergoloid 2+Sumatriptan 10, Ergoloid 2+Oxitriptan 40

SMILES: N[C@@H](Cc1c[nH]c2ccc(O)cc12)C(=O)O [Oxitriptan]
- Below threshold? WT-V vs. treated KO (Open Field) (Fmr1 KO mice [1]; Dunnett's test, alpha 0.05, doses as E1): Yes
- Significant? KO-V vs. treated KO (Open Field) (Fmr1 KO mice [1]; Dunnett's test, alpha 0.05, doses as E26): Yes
- Mean Diff., WT-V vs. treated KO (Open Field) (Fmr1 KO mice [1]; KO mice, mg/kg: Sumatriptan 20, 5-HTP 80, EM 4, Ergoloid 2+Sumatriptan 10, Ergoloid 2+Oxitriptan 40): −512.4
- Significant? KO-V vs. treated KO (Stereotypy) (Fmr1 KO mice [2]): Yes
- Significant? F_KO-V vs. F_KO treated (Sociability) (Fmr1 KO mice [3]; Dunnett's test, alpha 0.05, F_ groups, doses as E56): Yes
- Significant? F_KO-V vs. N_KO treated (Sociability) (Fmr1 KO mice [3]; Dunnett's test, alpha 0.05, N_ groups, doses as E61): Yes
- Significant? N_WT-V vs. treated KO (Sociability) (Fmr1 KO mice [3]; Dunnett's test, alpha 0.05, groups and doses as E21): No
- Summary, N_WT-V vs. treated KO (Sociability) (Fmr1 KO mice [3]; Dunnett's test, groups and doses as E21): ns
- Data table Sociability, F_KO-Oxitriptan (Fmr1 KO mice [3]; F_, KO mice, Oxitriptan 40 mg/kg, individual animals): 51
- Mean Diff., F_KO-V vs. N_KO treated (Sociability) (Fmr1 KO mice [3]; N_ groups, mg/kg: Sumatriptan 20, Oxitriptan 40, Ergoloid 4, Ergoloid 2+Oxitriptan 40): −17.20
- Mean Diff., N_WT-V vs. treated KO (Sociability) (Fmr1 KO mice [3]; N_ groups, mg/kg: Sumatriptan 20, Oxitriptan 40, Ergoloid 4, F_KO Ergoloid 2+Sumatriptan 10, N_KO Ergoloid 2+Oxitriptan 40): 0.3000
- Mean 2, N_KO treated group (Sociability) (Fmr1 KO mice [3]; comparison against F_KO-V, doses as E61): 95.80
- Mean 2, treated KO group (Sociability) (Fmr1 KO mice [3]; comparison against N_WT-V, groups and doses as E21): 98.80
- Significant? F_KO-V vs. F_KO treated (NOR) (Fmr1 KO mice [4]; Dunnett's test, alpha 0.05, F_ groups, doses as E46): No
- Significant? F_KO-V vs. N_KO treated (NOR) (Fmr1 KO mice [4]; Dunnett's test, alpha 0.05, N_ groups, doses as E51): Yes
- Significant? N_WT-V vs. treated KO (NOR) (Fmr1 KO mice [4]; Dunnett's test, alpha 0.05, groups and doses as E16): Yes
- Summary, F_KO-V vs. F_KO treated (NOR) (Fmr1 KO mice [4]; Dunnett's test, F_ groups, doses as E46): ns
- Mean 2, F_KO treated group (NOR) (Fmr1 KO mice [4]; comparison against F_KO-V, doses as E46): 5.636
- Significant? WT-V vs. treated KO (Hyponeophagia) (Fmr1 KO mice [5]; Dunnett's test, alpha 0.05, doses as E6): No
- Significant? KO-V vs. treated KO (Hyponeophagia) (Fmr1 KO mice [5]; Dunnett's test, alpha 0.05, doses as E36): Yes
- Summary, WT-V vs. treated KO (Hyponeophagia) (Fmr1 KO mice [5]; Dunnett's test, doses as E6): ns
- Mean Diff., WT-V vs. treated KO (Hyponeophagia) (Fmr1 KO mice [5]; [7]): −0.7000
- Significant? WT-V vs. treated KO (Test of daily living) (Fmr1 KO mice [6]; Dunnett's test, alpha 0.05, doses as E11): No
- Significant? KO-V vs. treated KO (Test of daily living) (Fmr1 KO mice [6]; Dunnett's test, alpha 0.05, doses as E41): Yes
- Summary, WT-V vs. treated KO (Test of daily living) (Fmr1 KO mice [6]; Dunnett's test, doses as E11): ns
- Mean Diff., KO-V vs. treated KO (Test of daily living) (Fmr1 KO mice [6]; KO mice, mg/kg: Sumatriptan 20, Oxitriptan 40, Ergoloid 4, Ergoloid 2+Oxitriptan 40): −3.700
- Mean Diff., WT-V vs. treated KO (Test of daily living) (Fmr1 KO mice [6]; [7]): −0.1000
- Mean 2, treated KO group (Test of daily living) (Fmr1 KO mice [6]; comparison against KO-V, doses as E41): 4.900
- Mean 2, treated KO group (Test of daily living) (Fmr1 KO mice [6]; comparison against WT-V, doses as E11): 4.900
